Results taken from patent publication US9790496B2, “Microrna compounds and methods for modulating MIR-21 activity” (Regulus Therapeutics, Inc., priority 2011, dated 2017).

Assays:
[1] = Ex vivo liver homogenate stability assay (HPLC-TOF MS); settings: 24 hours, 37° C.; for ex vivo (liver) N %↓: 5 μM oligonucleotide in liver homogenate (50 mg tissue per ml), decrease of full-length compound; for ex vivo (liver) % N-1 / ex vivo (liver) % Endo: 5 μM oligonucleotide in liver homogenate; for ex vivo (liver) % N-1: compound lacking one terminal nucleoside; for ex vivo (liver) % Endo: endonuclease products
[2] = In vivo stability: compound in kidney tissue after administration to mice; settings: kidney tissue after administration to mice; for in vivo (kidney) N-1(%): compound lacking one terminal nucleoside; for in vivo (kidney) N(%): full-length compound
[3] = test system: collagen 1A1 and collagen 3A1 expression in kidney, unilateral ureteral obstruction (UUO) model; assay: UUO model of kidney fibrosis: kidney collagen 1A1 and collagen 3A1 expression by real-time PCR; assay type: in vivo, mice; settings: UUO; 20 mg/kg at days -5, -3, +3; kidney at day 10
Method: Unilateral ureteral obstruction (UUO) is a well-established experimental model of renal injury leading to interstitial fibrosis, and thus is used as an experimental model that is reflective of human kidney disease. UUO is induced by surgically ligating a single ureter. As fibrosis is characterized by an increase in collagen, the presence and extent of kidney fibrosis may be determined by measuring collagen content. Both collagen 1A1 (Col 1A1) and collagen 3A1 (Col 3A1) are measured to assess collagen content. Kidney fibrosis may be visualized by staining tissue samples with picro-sirius red to detect increases in collagen content. Kidney fibrosis may also be observed by measuring the amount of hydroxyproline, which is a major component of collagen, in a sample.
The cEt-containing anti-miR-21 compounds found to be active in the luciferase assay were tested in the UUO model of kidney fibrosis. 25919 comprising 2′-MOE and 2′-fluoro modifications is known to inhibit miR-21 activity in vivo and was included as a positive control. Groups of 8 animals each were treated as follows: UUO only, UUO with PBS, or UUO with anti-miR-21 compound. Relative to the day of the UUO procedure, PBS or anti-miR-21 compound was administered at days −3, −1, and +5. Anti-miR-21 compounds were administered at a dose of 20 mg/kg. As the anti-miR compounds were administered prior to the UUO procedure, this dosing regimen is considered a prophylactic treatment. At day 11, animals were sacrificed and kidney was isolated for measurement of collagen expression. Collagen expression was measured by real-time PCR and normalized first to GAPDH and then to the sham control animals. […]

[4] = test system: ischemia reperfusion injury/nephrectomy (IR/Nx) model; assay: Ischemia reperfusion injury/nephrectomy (IR/Nx) model: urinary albumin to creatinine ratio; assay type: in vivo, mouse
From the text: An ischemia reperfusion injury/nephrectomy (IR/Nx) model is created in the mouse through temporary unilateral clamping of an artery in one kidney, which leads to tubule damage, inflammation, and fibrosis, followed by removal of the second kidney at a later timepoint. In this model, the acute kidney dysfunction phase is useful to test candidate agents for the treatment of acute kidney injury (i.e. up to about the first 5 days), and the later phases of kidney dysfunction are useful to model chronic fibrosis (i.e. after about the first 5 days).
Anti-miR-21 compounds were tested in the IR/Nx model. 25109, a 6-base mismatch to miR-21, was used as a control compound ([…]; where nucleosides not followed by a subscript indicate β-deoxynucleosides; nucleosides followed by a subscript “E” indicate 2′-MOE nucleosides; nucleosides followed by a subscript “S” indicate S-cEt nucleosides; and all internucleoside linkages are phosphorothioate internucleoside linkages).
Unilateral IR was induced for a period of 30 minutes. Treatment groups were as follows: sham IR procedure; IR with PBS administered subcutaneously; IR with mismatched control 25109 administered subcutaneously at a dose of 20 mg/kg; IR with anti-miR-21 compound 25070 administered subcutaneously at a dose of 20 mg/kg; and IR with anti-miR-21 compound 25923 administered subcutaneously at a dose of 20 mg/kg. PBS or anti-miR was administered on days 2, 3, 4, and 8 following IR. On day 8, the healthy kidney was removed by nephrectomy from each animal, and animals were sacrificed on day 9. Just prior to sacrifice, urine was collected by direct bladder puncture.
Urinary albumin to creatinine ratio was measured in the urine from each mouse. […] The geometric mean of the albumin to creatinine ratio in each group of mice was 16 μgAlb/mgCr (nephrectomy-only control), 127 μgAlb/mgCr (IR/Nx, PBS control), 140 μgAlb/mgCr (IR/Nx, 25109 control), 40 μgAlb/mgCr (IR/Nx, 25070), and 31 μgAlb/mgCr (IR/Nx, 25923). Blood urea nitrogen and serum creatinine levels were similar across all IR/Nx mice, and were elevated relative to nephrectomy-only control mice (data not shown).

miR-21 = miR-21 luciferase sensor assay in Hela cells; assay type: cell-based
Method: The compounds were assessed for miR-21 inhibitory activity in a luciferase assay. A microRNA luciferase sensor construct was engineered using pGL3-MCS2 (Promega). The construct was introduced into Hela cells to test the ability of anti-miR compounds to inhibit activity of miR-21. In this assay, miR-21 present in the Hela cells binds to its cognate site(s) in the luciferase sensor construct, and suppresses luciferase expression. When the appropriate anti-miR is introduced into the cells, it binds to miR-21 and relieves suppression of luciferase expression. Thus, in this assay anti-miRs that are effective inhibitors of miR-21 expression will cause an increase in luciferase expression.
Day 1: Hela cells (ATCC), stably transfected with a luciferase construct engineered to contain a sequence complementary of miR-21, were seeded in T-170 flasks (BD Falcon) at 3.5*10^6 cells/flask. Hela cells were grown in Dulbecco's Modified Eagle Medium with High Glucose (Invitrogen).
Day 2: Each flask of Hela cells was transfected with 0.5 ug of a phRL sensor plasmid (Promega) expressing Renilla to be used in normalization. Hela cells were transfected using 20 ul Lipofectamine 2000/flask (Invitrogen). After 4 hours of transfection, cells were washed with PBS and trypsinized. Hela cells were plated at 40 k/well in 24 well plates (BD Falcon) and left overnight.
Day 3: Hela cells were transfected with anti-miRs using Lipofectin (Invitrogen) at 2.5 ul Lipofectin/100 nM ASO/ml Opti-MEM I Reduced Serum Medium (Invitrogen) for 4 hours. After ASO transfection, Hela cells were refed with Dulbecco's Modified Eagle Medium with High Glucose (Invitrogen).
Day 4: Hela cells are passively lysed and luciferase activity measured using the Dual-Luciferase Reporter Assay System (Promega).
The luciferase assay was performed to test the ability of anti-miRs with the nucleoside patterns described herein to inhibit the activity of miR-21. Results were compared to a ‘mock’ treatment, in which cells received no anti-miR treatment. The experiment was repeated and results of two experimental replicates are shown in the following Table B, as the luciferase value normalized to beta-galactosidase activity.
The luciferase assay was performed as described herein to test the ability of anti-miRs in Table F to inhibit the activity of miR-21. Results were compared to a ‘mock’ treatment, in which cells received no anti-miR treatment. The experiment was repeated and results of two experimental replicates are shown in the following Table D, as fold change in luciferase value relative to the mock treatment.

Q: What does the source list for “AECSATCSASGTCSUSGAUSASAGCSUSAE (ACATCAGTCTGATAAGCTA; modified nucleosides coded in name, code key not given here) [Compound 25220]”?
A: ex vivo (liver) N %↓ [1]: 3%; ex vivo (liver) % N-1 [1]: 0%; ex vivo (liver) % Endo [1]: 3%; in vivo (kidney) N-1(%) [2]: 16 ± 6%; in vivo (kidney) N(%) [2]: 67 ± 16%; reduction of collagen 1A1 expression (in words, FIG. 2A) [3]: reduced collagen 1A1 and collagen 3A1 expression by a statistically significant amount; reduction of collagen 3A1 expression (in words, FIG. 2B) [3]: reduced collagen 1A1 and collagen 3A1 expression by a statistically significant amount

Q: Which “ex vivo (liver) N %↓” value [1] does the source give for “AECSATCSAGTCSTGAUSAAGCSUSAS (ACATCAGTCTGATAAGCTA; modified nucleosides coded in name, code key not given here) [Compound 25221]” here?
A: Its value is 3%.

Q: And the “ex vivo (liver) % N-1” value [1]?
A: The value was 0%.

Q: What about the “ex vivo (liver) % Endo” value [1] of the same sequence?
A: The value was 3%.

Q: What about the “in vivo (kidney) N-1(%)” value [2] of the same sequence?
A: Its value is 4 ± 1%.

Q: What about the “in vivo (kidney) N(%)” value [2] of the same sequence?
A: Its value is 76 ± 4%.

Q: What about the “reduction of collagen 1A1 expression (in words, FIG. 2A)” value [3] of the same sequence?
A: Its value is “reduced collagen 1A1 and collagen 3A1 expression by a statistically significant amount”.

Q: What about the “reduction of collagen 3A1 expression (in words, FIG. 2B)” value [3] of the same sequence?
A: Its value is “reduced collagen 1A1 and collagen 3A1 expression by a statistically significant amount”.

Q: Which results are given for “AECSATCSAGTCSTGAUSAAGCSTAS (ACATCAGTCTGATAAGCTA; modified nucleosides coded in name, code key not given here) [Compound 25923, 25070 variant: 3'-terminal nucleoside is a cEt nucleoside rather than 2'-MOE nucleoside]”?
A: reduction in urinary albumin to creatinine ratio (in words) ([4]; s.c. 20 mg/kg on days 2, 3, 4, 8): statistically significant reductions; geometric mean of the urinary albumin to creatinine ratio ([4]; s.c. 20 mg/kg on days 2, 3, 4, 8, urine day 9, PBS control 127, nephrectomy-only 16): 31 μgAlb/mgCr; reduction of collagen 1A1 expression (in words, FIG. 2A) [3]: reduced collagen 1A1 and collagen 3A1 expression by a statistically significant amount; reduction of collagen 3A1 expression (in words, FIG. 2B) [3]: reduced collagen 1A1 and collagen 3A1 expression by a statistically significant amount; inhibition of miR-21 in the luciferase assay (in words) (miR-21; Hela cells): demonstrated inhibition of miR-21 in a dose-dependent manner; fold change in luciferase value relative to the mock treatment (miR-21; concentration of anti-miR compound 0.2 (unit not given)): 1.06; fold change in luciferase value relative to the mock treatment (miR-21; concentration of anti-miR compound 0.6 (unit not given)): 1.01; fold change in luciferase value relative to the mock treatment (miR-21; concentration of anti-miR compound 1.9 (unit not given)): 1.10; fold change in luciferase value relative to the mock treatment (miR-21; concentration of anti-miR compound 5.6 (unit not given)): 5.18; fold change in luciferase value relative to the mock treatment (miR-21; concentration of anti-miR compound 16.7 (unit not given)): 11.34; fold change in luciferase value relative to the mock treatment (miR-21; concentration of anti-miR compound 50.0 (unit not given)): 10.81
